Reference: ChEMBL document CHEMBL3400001, “Tricyclic 1,5-naphthyridinone oxabicyclooctane-linked novel bacterial topoisomerase inhibitors as broad-spectrum antibacterial agents-SAR of left-hand-side moiety (Part-2)” (Bioorg Med Chem Lett, 2015)
pIC50: −log10 of the molar value. Converted amounts (≈) assume the structure as drawn.

Experiments:
Acinetobacter baumannii = test: Antimicrobial activity against Acinetobacter baumannii IID876 by micro broth dilution or agar based method; format: functional; settings: Acinetobacter baumannii, IID876; read-out: MIC
Staphylococcus aureus [1] = test: Antimicrobial activity against Staphylococcus aureus Smith by micro broth dilution or agar based method; format: functional; settings: Staphylococcus aureus, Smith; read-out: MIC
Pseudomonas aeruginosa = test: Antimicrobial activity against Pseudomonas aeruginosa PAO1 by micro broth dilution or agar based method; format: functional; settings: Pseudomonas aeruginosa, PAO1; read-out: MIC
Streptococcus pneumoniae = test: Antimicrobial activity against Streptococcus pneumoniae IID554 by micro broth dilution or agar based method; format: functional; settings: Streptococcus pneumoniae, IID554; read-out: MIC
Enterococcus faecalis = test: Antimicrobial activity against Enterococcus faecalis ATCC 29212 MB by micro broth dilution or agar based method; format: functional; settings: Enterococcus faecalis, ATCC 29212 MB; read-out: MIC
Escherichia coli = test: Antimicrobial activity against Escherichia coli ATCC 25922 by micro broth dilution or agar based method; format: functional; settings: Escherichia coli, ATCC 25922; read-out: MIC
[2] = molecular target: Voltage-gated inwardly rectifying potassium channel KCNH2 (Homo sapiens, UniProt Q12809); test: Inhibition of human ERG by MK499 binding assay
Staphylococcus aureus [3] = test: Ratio of MIC for quinolone-resistant Staphylococcus aureus MS5935 to MIC for quinolone-[…]; format: functional
Moraxella catarrhalis = test: Antimicrobial activity against Moraxella catarrhalis ATCC 25238 by micro broth dilution or agar based method; format: functional
Enterococcus faecium = test: Antimicrobial activity against vancomycin-resistant Enterococcus faecium A2373 expressing VanA by micro broth dilution or agar based method; format: functional; settings: Enterococcus faecium, A2373; read-out: MIC
Haemophilus influenzae = test: Antimicrobial activity against Haemophilus influenzae ATCC 49247 by micro broth dilution or agar based method; format: functional
Staphylococcus aureus [4] = test: Antimicrobial activity against quinolone-resistant Staphylococcus aureus MS5935; format: functional
Staphylococcus aureus [5] = test: Antimicrobial activity against quinolone-sensitive Staphylococcus aureus MS5935

Sequence of Voltage-gated inwardly rectifying potassium channel KCNH2 (Q12809 whole entry): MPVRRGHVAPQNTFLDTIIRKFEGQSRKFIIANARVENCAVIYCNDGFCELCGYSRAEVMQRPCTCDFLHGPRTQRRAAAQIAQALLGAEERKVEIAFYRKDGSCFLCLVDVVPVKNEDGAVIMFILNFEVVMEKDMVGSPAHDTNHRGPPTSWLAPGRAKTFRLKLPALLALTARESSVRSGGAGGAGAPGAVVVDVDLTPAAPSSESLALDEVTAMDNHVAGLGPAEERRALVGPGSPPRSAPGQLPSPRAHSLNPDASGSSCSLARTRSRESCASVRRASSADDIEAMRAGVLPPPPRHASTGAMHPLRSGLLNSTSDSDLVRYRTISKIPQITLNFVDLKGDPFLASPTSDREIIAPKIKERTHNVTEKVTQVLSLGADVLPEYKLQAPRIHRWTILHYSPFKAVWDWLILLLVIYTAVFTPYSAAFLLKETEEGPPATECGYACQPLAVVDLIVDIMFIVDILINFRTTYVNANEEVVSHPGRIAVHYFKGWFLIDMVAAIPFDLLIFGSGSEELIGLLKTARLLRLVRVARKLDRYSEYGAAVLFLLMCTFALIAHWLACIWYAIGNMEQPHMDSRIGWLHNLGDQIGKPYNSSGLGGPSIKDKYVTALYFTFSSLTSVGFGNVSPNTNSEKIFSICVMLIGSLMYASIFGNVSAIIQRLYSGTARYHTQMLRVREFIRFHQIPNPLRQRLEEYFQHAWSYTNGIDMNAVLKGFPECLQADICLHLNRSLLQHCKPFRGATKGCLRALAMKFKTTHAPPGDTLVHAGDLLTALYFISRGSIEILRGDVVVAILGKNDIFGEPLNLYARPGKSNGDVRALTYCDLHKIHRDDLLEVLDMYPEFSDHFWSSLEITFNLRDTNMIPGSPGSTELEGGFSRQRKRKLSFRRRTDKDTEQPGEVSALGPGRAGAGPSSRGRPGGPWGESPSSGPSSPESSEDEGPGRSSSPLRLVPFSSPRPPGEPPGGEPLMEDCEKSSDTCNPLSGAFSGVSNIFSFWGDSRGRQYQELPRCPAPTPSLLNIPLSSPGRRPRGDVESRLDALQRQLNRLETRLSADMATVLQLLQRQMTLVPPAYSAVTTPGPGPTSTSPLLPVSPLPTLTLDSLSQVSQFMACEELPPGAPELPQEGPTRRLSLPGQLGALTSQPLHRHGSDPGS

Compound | MIC (Acinetobacter baumannii) [µg/mL] | MIC (Staphylococcus aureus [1]) [µg/mL] | MIC (Pseudomonas aeruginosa) [µg/mL] | MIC (Streptococcus pneumoniae) [µg/mL] | MIC (Enterococcus faecalis) [µg/mL] | MIC (Escherichia coli) [µg/mL] | pIC50 [2] | Ratio (Staphylococcus aureus [3]) | MIC (Moraxella catarrhalis) [µg/mL] | MIC (Enterococcus faecium) [µg/mL] | MIC (Haemophilus influenzae) [µg/mL] | MIC (Staphylococcus aureus [4]) [µg/mL] | MIC (Staphylococcus aureus [5]) [µg/mL]
O=C1COc2ccc(CNC34CCC(CC5(O)Cn6c(=O)cc(Cl)c7ncc(F)c5c76)(CC3)OC4)nc2N1 (racemic) | 8 (≈ 14.8 µM) | 2 (≈ 3.69 µM) | 32 (≈ 59 µM) | 2 (≈ 3.69 µM) | 8 (≈ 14.8 µM) | 8 (≈ 14.8 µM) | < 4.22 | <4 | 1 (≈ 1.85 µM) | 32 (≈ 59 µM) | 8 (≈ 14.8 µM) | – | –
O=C1COc2ccc(CNC34CCC(C[C@]5(O)Cn6c(=O)ccc7ncc(Cl)c5c76)(CC3)OC4)nc2N1 | 8 (≈ 15.3 µM) | 0.5 (≈ 0.954 µM) | 32 (≈ 61.1 µM) | 1 (≈ 1.91 µM) | 4 (≈ 7.63 µM) | 8 (≈ 15.3 µM) | 4.27 | <4 | – | 8 (≈ 15.3 µM) | – | – | –
O=C1COc2ccc(CNC34CCC(C[C@]5(O)Cn6c(=O)ccc7nc(Cl)c(F)c5c76)(CC3)OC4)nc2N1 | 32 (≈ 59 µM) | 4 (≈ 7.38 µM) | 32 (≈ 59 µM) | 8 (≈ 14.8 µM) | 16 (≈ 29.5 µM) | 32 (≈ 59 µM) | – | – | 4 (≈ 7.38 µM) | 32 (≈ 59 µM) | – | – | –
O=C1COc2ccc(CNC34CCC(C[C@]5(O)CN6C(=O)CCc7ncc(F)c5c76)(CC3)OC4)nc2N1 | 32 (≈ 62.8 µM) | 8 (≈ 15.7 µM) | 32 (≈ 62.8 µM) | 8 (≈ 15.7 µM) | 16 (≈ 31.4 µM) | 32 (≈ 62.8 µM) | < 4.22 | <4 | – | 32 (≈ 62.8 µM) | – | – | –
O=C1COc2ccc(CNC34CCC(C[C@]5(O)Cn6c(=O)c(F)cc7ncc(F)c5c76)(CC3)OC4)nc2N1 | 4 (≈ 7.61 µM) | 0.25 (≈ 0.476 µM) | 16 (≈ 30.4 µM) | 0.5 (≈ 0.951 µM) | 2 (≈ 3.81 µM) | 4 (≈ 7.61 µM) | < 4.22 | <4 | 0.25 (≈ 0.476 µM) | 4 (≈ 7.61 µM) | 1 (≈ 1.9 µM) | – | –
COc1ccc2ncc(F)c(C[C@H](O)C34CCC(NCc5ccc6c(n5)NC(=O)CO6)(CC3)CO4)c2n1 | 0.5 (≈ 0.981 µM) | 0.02 (≈ 0.0393 µM) | 8 (≈ 15.7 µM) | 0.05 (≈ 0.0981 µM) | 0.5 (≈ 0.981 µM) | 2 (≈ 3.93 µM) | – | – | 0.015 (≈ 0.0294 µM) | 0.5 (≈ 0.981 µM) | 0.5 (≈ 0.981 µM) | – | –
O=C1COc2ccc(CNC34CCC(C[C@@]5(O)CN6C(=O)CCc7ncc(F)c5c76)(CC3)OC4)nc2N1 | 32 (≈ 62.8 µM) | 8 (≈ 15.7 µM) | 32 (≈ 62.8 µM) | 32 (≈ 62.8 µM) | 32 (≈ 62.8 µM) | 32 (≈ 62.8 µM) | < 4.22 | <4 | – | 32 (≈ 62.8 µM) | – | – | –
C[C@H]1COc2c(N3CCN(C)CC3)c(F)cc3c(=O)c(C(=O)O)cn1c23.C[C@H]1COc2c(N3CCN(C)CC3)c(F)cc3c(=O)c(C(=O)O)cn1c23.O [LEVOFLOXACIN] | – | – | – | – | – | – | – | <4 | – | – | – | > 16 | 0.25
O=C1COc2ccc(CNC34CCC(C[C@@]5(O)Cn6c(=O)ccc7ncc(Cl)c5c76)(CC3)OC4)nc2N1 | 32 (≈ 61.1 µM) | 4 (≈ 7.63 µM) | 32 (≈ 61.1 µM) | 4 (≈ 7.63 µM) | 16 (≈ 30.5 µM) | 32 (≈ 61.1 µM) | < 4.22 | <4 | – | 32 (≈ 61.1 µM) | – | – | –
Cc1cc(=O)n2c3c(c(F)cnc13)[C@@](O)(CC13CCC(NCc4ccc5c(n4)NC(=O)CO5)(CC1)CO3)C2 | 2 (≈ 3.83 µM) | 8 (≈ 15.3 µM) | 32 (≈ 61.4 µM) | 8 (≈ 15.3 µM) | 16 (≈ 30.7 µM) | 32 (≈ 61.4 µM) | < 4.22 | <4 | 2 (≈ 3.83 µM) | 32 (≈ 61.4 µM) | 16 (≈ 30.7 µM) | – | –
CO[C@]1(CC23CCC(NCc4ccc5c(n4)NC(=O)CO5)(CC2)CO3)Cn2c(=O)ccc3ncc(F)c1c32 | 32 (≈ 61.4 µM) | 8 (≈ 15.3 µM) | 32 (≈ 61.4 µM) | 32 (≈ 61.4 µM) | 32 (≈ 61.4 µM) | 32 (≈ 61.4 µM) | 4.61 | <4 | – | 32 (≈ 61.4 µM) | – | – | –
